What all share (format): cell-based
The target of assay [1] is human α1G T-type channels (Homo sapiens, UniProt O43497). The experiment in a line: T-type calcium channel block, whole cell patch clamp, α1G. To be noted: HEK cells stably expressing human α1G; mainly non-inactivated protocol; values above 10,000 nM represented as 10000. The gist of the method:
(§1)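 Read-out: current block in whole-cell patch clamp of HEK 293 cells stably expressing human α1G or α1H subunits. Compounds were perfused locally in external solution (0.1-0.01% DMSO) under resting and inactivating voltage protocols.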
(In general: In patch-clamp work, channel activity is measured electrically.)

Assay [2] addresses human α1H T-type channels (Homo sapiens, UniProt O95180). The experiment in a line: T-type calcium channel block, whole cell patch clamp, α1H. To be noted: HEK cells stably expressing human α1H; mainly non-inactivated protocol; values above 10,000 nM represented as 10000. The gist of the method:
as §1

The target in assay [3] is N-type calcium channel subunits (α1B, α2δ, and β3a) (Homo sapiens, UniProt Q00975). The experiment in a line: Block of Cav2.2 channel, whole cell voltage clamp, manual and PatchXpress. Particulars: Table 5; table follows Assay Example 3 (whole cell voltage clamp / PatchXpress); assay not given. In a few lines:
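Percent block taken as current amplitude ratio with versus without compound, applied in rising doses; IC50 fitted where one cell received multiple doses. Protocol: 50 ms pulses to +20 mV at 0.067 Hz from […] or −90 mV holding; P/n leak subtraction, no junction-potential correction; manual and PatchXpress recordings.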

Where only a bound is given, the exact number is not on record here.

N-type calcium channel subunits (α1B, α2δ, and β3a), sequence (Q00975 whole entry): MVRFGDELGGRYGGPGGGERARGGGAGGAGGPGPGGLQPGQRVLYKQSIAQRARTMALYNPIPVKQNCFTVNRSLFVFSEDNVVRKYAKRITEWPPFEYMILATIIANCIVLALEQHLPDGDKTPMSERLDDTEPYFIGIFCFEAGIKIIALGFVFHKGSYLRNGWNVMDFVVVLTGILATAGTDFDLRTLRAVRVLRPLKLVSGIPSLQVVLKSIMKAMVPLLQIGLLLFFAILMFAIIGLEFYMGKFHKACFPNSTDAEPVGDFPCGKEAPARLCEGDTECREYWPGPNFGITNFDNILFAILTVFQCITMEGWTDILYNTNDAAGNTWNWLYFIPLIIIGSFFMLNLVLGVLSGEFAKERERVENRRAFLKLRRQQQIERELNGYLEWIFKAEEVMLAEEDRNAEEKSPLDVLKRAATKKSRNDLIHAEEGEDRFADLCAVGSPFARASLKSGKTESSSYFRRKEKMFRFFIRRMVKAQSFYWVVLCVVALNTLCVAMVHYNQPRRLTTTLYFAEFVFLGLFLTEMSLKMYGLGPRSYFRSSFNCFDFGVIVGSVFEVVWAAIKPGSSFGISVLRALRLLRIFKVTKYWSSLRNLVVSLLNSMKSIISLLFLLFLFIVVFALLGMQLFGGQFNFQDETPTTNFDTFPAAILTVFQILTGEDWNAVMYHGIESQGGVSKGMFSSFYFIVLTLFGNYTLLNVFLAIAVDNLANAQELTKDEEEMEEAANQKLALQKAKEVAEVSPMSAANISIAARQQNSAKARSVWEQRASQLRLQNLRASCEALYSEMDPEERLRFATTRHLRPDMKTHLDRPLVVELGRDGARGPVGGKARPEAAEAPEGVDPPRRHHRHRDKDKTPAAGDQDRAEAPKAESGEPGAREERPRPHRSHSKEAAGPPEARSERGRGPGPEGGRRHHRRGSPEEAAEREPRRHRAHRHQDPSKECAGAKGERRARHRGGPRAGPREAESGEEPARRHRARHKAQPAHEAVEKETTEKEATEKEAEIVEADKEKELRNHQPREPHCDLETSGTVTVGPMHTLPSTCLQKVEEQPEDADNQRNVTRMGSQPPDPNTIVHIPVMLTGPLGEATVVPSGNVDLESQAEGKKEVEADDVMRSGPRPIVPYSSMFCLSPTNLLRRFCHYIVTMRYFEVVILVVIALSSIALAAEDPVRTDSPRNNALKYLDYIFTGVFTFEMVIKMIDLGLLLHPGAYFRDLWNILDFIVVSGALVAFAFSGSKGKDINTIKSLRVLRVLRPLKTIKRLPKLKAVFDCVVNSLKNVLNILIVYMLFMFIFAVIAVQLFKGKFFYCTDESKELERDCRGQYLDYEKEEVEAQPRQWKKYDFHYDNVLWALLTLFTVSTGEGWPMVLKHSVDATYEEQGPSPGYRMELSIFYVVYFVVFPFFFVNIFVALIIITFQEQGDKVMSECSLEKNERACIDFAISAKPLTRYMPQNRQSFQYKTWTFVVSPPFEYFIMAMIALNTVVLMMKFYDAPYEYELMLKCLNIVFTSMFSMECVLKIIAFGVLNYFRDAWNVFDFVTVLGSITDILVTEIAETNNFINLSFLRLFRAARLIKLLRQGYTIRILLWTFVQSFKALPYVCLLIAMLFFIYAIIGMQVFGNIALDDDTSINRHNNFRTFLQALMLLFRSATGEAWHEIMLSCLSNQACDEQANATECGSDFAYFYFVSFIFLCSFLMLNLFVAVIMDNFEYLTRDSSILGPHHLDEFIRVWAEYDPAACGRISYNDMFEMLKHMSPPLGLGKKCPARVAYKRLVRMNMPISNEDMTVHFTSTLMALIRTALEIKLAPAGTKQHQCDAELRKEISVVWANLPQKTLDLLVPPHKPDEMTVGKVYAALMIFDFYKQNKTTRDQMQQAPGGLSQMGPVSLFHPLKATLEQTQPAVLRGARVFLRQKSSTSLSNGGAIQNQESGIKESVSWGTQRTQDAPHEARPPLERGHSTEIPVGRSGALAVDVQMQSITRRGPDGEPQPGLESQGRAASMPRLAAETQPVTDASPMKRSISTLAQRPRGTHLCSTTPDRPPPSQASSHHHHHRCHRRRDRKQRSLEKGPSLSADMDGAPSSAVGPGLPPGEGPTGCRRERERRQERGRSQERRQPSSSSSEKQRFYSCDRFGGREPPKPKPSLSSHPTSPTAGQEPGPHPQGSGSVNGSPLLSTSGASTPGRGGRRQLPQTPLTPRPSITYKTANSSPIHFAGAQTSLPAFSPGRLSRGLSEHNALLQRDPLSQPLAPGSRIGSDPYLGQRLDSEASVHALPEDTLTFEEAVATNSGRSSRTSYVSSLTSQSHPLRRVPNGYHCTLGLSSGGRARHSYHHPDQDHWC
N-type calcium channel subunits (α1B, α2δ, and β3a), sequence (P54289 25-1103 partner): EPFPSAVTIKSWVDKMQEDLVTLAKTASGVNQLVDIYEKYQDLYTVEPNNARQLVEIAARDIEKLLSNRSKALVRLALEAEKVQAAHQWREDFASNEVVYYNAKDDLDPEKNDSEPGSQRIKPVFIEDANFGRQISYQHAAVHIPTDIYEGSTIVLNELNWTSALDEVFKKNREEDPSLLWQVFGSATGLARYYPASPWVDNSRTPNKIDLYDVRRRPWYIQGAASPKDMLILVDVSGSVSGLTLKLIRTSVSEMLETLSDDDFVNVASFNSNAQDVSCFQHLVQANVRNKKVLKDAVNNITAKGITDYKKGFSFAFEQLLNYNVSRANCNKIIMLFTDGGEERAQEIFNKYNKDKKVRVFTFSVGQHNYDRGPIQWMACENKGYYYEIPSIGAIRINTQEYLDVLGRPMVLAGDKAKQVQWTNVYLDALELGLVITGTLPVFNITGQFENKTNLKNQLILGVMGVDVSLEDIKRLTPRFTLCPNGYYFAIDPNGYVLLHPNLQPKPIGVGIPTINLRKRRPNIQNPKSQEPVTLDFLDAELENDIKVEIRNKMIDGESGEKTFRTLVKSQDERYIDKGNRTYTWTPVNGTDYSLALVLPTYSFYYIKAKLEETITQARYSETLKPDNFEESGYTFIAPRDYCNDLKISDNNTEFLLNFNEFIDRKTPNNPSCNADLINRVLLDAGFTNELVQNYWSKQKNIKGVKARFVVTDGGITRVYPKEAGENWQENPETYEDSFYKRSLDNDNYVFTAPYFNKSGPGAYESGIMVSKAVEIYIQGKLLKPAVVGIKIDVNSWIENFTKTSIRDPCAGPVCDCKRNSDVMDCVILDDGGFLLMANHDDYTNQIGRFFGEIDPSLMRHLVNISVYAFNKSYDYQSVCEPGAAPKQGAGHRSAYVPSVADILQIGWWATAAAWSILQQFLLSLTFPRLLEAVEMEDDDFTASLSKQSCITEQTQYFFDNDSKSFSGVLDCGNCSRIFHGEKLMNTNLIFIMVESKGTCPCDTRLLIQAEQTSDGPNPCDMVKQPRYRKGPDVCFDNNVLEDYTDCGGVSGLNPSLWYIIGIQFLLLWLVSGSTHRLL
N-type calcium channel subunits (α1B, α2δ, and β3a), sequence (P54284 whole entry partner): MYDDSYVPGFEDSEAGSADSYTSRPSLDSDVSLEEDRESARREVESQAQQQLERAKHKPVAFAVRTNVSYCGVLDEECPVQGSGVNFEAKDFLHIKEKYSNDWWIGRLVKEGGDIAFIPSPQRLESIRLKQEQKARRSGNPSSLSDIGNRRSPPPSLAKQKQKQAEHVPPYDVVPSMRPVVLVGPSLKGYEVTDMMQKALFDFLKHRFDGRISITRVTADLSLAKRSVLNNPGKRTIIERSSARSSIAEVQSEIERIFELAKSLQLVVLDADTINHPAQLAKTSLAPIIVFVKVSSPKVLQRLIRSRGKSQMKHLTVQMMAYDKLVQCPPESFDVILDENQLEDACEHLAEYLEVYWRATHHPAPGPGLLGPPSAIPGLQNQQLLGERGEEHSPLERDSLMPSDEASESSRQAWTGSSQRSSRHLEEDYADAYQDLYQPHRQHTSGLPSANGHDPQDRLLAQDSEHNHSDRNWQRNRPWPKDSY

For orientation: IC50 means the point on the concentration scale where inhibition reaches its midpoint. As for `CC(C)(C)NC(=O)CNC1CCC(C)(S(=O)(=O)c2cccc(C(F)(F)F)c2)CC1` (stereo not drawn) [Compound 15, N-tert-butyl-2-(4-methyl-4-(3-(trifluoromethyl)phenylsulfonyl)cyclohexylamino)acetamide], the half-maximal inhibitory concentration (IC50) is over 10 µM in assay [1], 4.62 µM in assay [2] and 50 nM in assay [3].
`CS(=O)(=O)c1cc(C(F)(F)F)ccc1C(=O)N[C@H]1CC[C@@](F)(S(=O)(=O)c2cc(F)cc(C(F)(F)F)c2)CC1` [Compound 330, N-((1S,4S)-4-fluoro-4-(3-fluoro-5-(trifluoromethyl)phenylsulfonyl)cyclohexyl)-2-(methylsulfonyl)-4-(trifluoromethyl)benzamide]: the half-maximal inhibitory concentration (IC50) in assay [1] turned out to be 8.56 µM; in assay [2], 0.93 µM; in assay [3], 1020 nM.
On to `O=C(NC[C@H]1C[C@H](S(=O)(=O)c2cccc(C(F)(F)F)c2)C1)c1cc(C(F)(F)F)ccn1` [Compound 372, 4-(trifluoromethyl)-N-(((1R,3R)-3-(3-(trifluoromethyl)phenylsulfonyl)cyclobutyl)methyl)picolinamide], for which the IC50 in assay [1] came to 7.17 µM; in assay [2], 9.63 µM; in assay [3] it was 260 nM.
For `O=C(Nc1cncc(Cl)c1)[C@H]1C[C@@H](S(=O)(=O)c2cccc(C(F)(F)F)c2)C1` [Compound 420, (1S,3S)-N-(5-chloropyridin-3-yl)-3-(3-(trifluoromethyl)phenylsuIfonyl)cyclobutane carboxamide] the same measures were 2.02 µM, 0.71 µM and 1250 nM.
With `O=S(=O)(CCC(F)(F)F)NC[C@H]1C[C@H](S(=O)(=O)c2cccc(C(F)(F)F)c2)C1` [Compound 425, 3,3,3-trifluoro-N-(((1R,3R)-3-(3-(trifluoromethyl)phenylsulfonyl)cyclobutyl)methyl)propane-1-sulfonamide], the 50% inhibitory concentration (IC50) was 1.55 µM in assay [1], 1.07 µM in assay [2] and 3760 nM in assay [3].
`CN(C(=O)c1cn2cc(C(F)(F)F)ccc2n1)[C@H]1CC[C@@](F)(S(=O)(=O)c2cc(F)cc(C(F)(F)F)c2)CC1` [Compound 338, N-((1S,4S)-4-fluoro-4-(3-fluoro-5-(trifluoromethyl)phenylsulfonyl)cyclohexyl)-N-methyl-6-(trifluoromethyl) imidazo[1,2-a]pyridine-2-carboxamide]: the 50% inhibitory concentration (IC50) in assay [1] is over 10 µM; in assay [2], 6.79 µM; in assay [3], 770 nM.
For `O=C(N[C@H]1CC[C@H](S(=O)(=O)c2cccc(C(F)(F)F)c2)CC1)c1ccc(C(F)(F)F)cn1` [Compound 62, 5-(trifluoromethyl)-N-((1R,4R)-4-(3-(trifluoromethyl)phenylsulfonyl)cyclohexyl)picolinamide] the same measures were 1.08 µM, 0.55 µM and 3480 nM.
For `CN(C(=O)CN[C@H]1CC[C@H](S(=O)(=O)c2cccc(C(F)(F)F)c2)CC1)C(C)(C)C` [Compound 70, N-tert-butyl-N-methyl-2-((1R,4R)-4-(3-(trifluoromethyl)phenylsulfonyl)cyclohexylamino)acetamide] the same measures were 8.81 µM, 2.58 µM and 1220 nM.
For the compound `CCN(CC)C(=O)CN[C@H]1CC[C@H](CS(=O)(=O)c2cccc(C(F)(F)F)c2)CC1` [Compound 116, N,N-diethyl-2-((1R,4R)-4-((3-(trifluoromethyl)phenylsulfonyl)methyl)cyclohexylamino)acetamide], the IC50 worked out at 8.32 µM in assay [1], 4.24 µM in assay [2] and 2090 nM in assay [3].
For `CS(=O)(=O)c1cc(C(F)(F)F)ccc1C(=O)N[C@H]1CC[C@@](F)(S(=O)(=O)c2cccc(OC(F)(F)F)c2)CC1` [Compound 254] the same measures were 0.74 µM, 0.26 µM and 370 nM.
Consider `O=C(NC[C@H]1C[C@H](S(=O)(=O)c2cccc(C(F)(F)F)c2)C1)c1cnc(C(F)(F)F)nc1` [Compound 371, 2-(trifluoromethyl)-N-(((1R,3R)-3-(3-(trifluoromethyl)phenylsulfonyl)cyclobutyl)methyl)pyrimidine-5-carboxamide], for which the IC50 turned out to be 1.06 µM in assay [1], 0.66 µM in assay [2] and 1160 nM in assay [3].
As for `O=C(CNC[C@H]1CC[C@@H](S(=O)(=O)c2cccc(C(F)(F)F)c2)CC1)NCC(F)(F)F` [Compound 37, N-(2,2,2-trifluoroethyl)-2-(((1S,4S)-4-(3-(trifluoromethyl)phenylsulfonyl)cyclohexyl)methylamino)acetamide], the 50% inhibitory concentration (IC50) in assay [1] was 9.28 µM; in assay [2], 3.62 µM; in assay [3] it was 1310 nM.
For `O=C(Nc1ccc(C(F)(F)F)cn1)[C@H]1C[C@@H](S(=O)(=O)c2cccc(C(F)(F)F)c2)C1` [Compound 416, (1S,3S)-3-(3-(trifluoromethyl)phenylsulfonyl)-N-(5-(trifluoromethyl)pyridin-2-yl)cyclobutanecarboxamide] the same measures were over 10 µM, 8.18 µM and 1650 nM.
On to `O=C(N[C@H]1CC[C@](F)(S(=O)(=O)c2cccc(OC(F)(F)F)c2)CC1)c1ccc(F)c(Cl)c1` [Compound 250, 3-chloro-4-fluoro-N-((1R,4R)-4-fluoro-4-(3-(trifluoromethoxy)phenylsulfonyl)cyclohexyl)benzamide], for which the IC50 in assay [1] came to 4.28 µM; in assay [2], 0.99 µM; in assay [3], 800 nM.
With `O=C(N[C@H]1CC[C@@](F)(S(=O)(=O)c2cccc(C(F)(F)F)c2)CC1)c1ccc(OCC(F)(F)F)nc1` [Compound 249, N-((1S,4S)-4-fluoro-4-(3-(trifluoromethyl)phenylsulfonyl)cyclohexyl)-6-(2,2,2-trifluoroethoxy)nicotinamide], the IC50 in assay [1] stood at 2.65 µM; in assay [2], 0.36 µM; in assay [3], 260 nM.
The matching figures for `O=C(N[C@H]1CC[C@@](F)(S(=O)(=O)c2cccc(C(F)(F)F)c2)CC1)[C@@H]1CC[C@H](c2ccccc2)N1` [Compound 289]: 1.4 µM, 1.04 µM and 540 nM.
For `CC(C)(C)OC(=O)N[C@H]1CC[C@H](S(=O)(=O)c2cccc(C(F)(F)F)c2)CC1` [Compound 95, tert-butyl(1R,4R)-4-(3-(trifluoromethyl)phenylsulfonyl) cyclohexylcarbamate] the same measures were 6.97 µM, 2.15 µM and 1640 nM.
For `COc1cc(F)cc(C(=O)NC2(C)CCC(F)(S(=O)(=O)c3cccc(C(F)(F)F)c3)CC2)c1` (stereo not drawn) [Compound 94, 3-fluoro-N-(4-fluoro-1-methyl-4-(3-(trifluoromethyl)phenylsulfonyl)cyclohexyl)-5-methoxybenzamide] the same measures were over 10 µM, over 10 µM and 230 nM.
As to `O=C(NC[C@H]1C[C@H](S(=O)(=O)c2cccc(C(F)(F)F)c2)C1)c1cn2cc(C(F)(F)F)ccc2n1` [Compound 360, 6-(trifluoromethyl)-N-(((1R,3R)-3-(3-(trifluoromethyl)phenylsulfonyl)cyclobutyl)methyl)imidazo[l,2-a]pyridine-2-carboxamide], the IC50 in assay [1] was over 10 µM; in assay [2] it was over 10 µM; in assay [3], 190 nM.
